Legend:
[1] = test system: G0S2 promoter (−2030→+10); assay: G0S2 promoter (−2030→+10) luciferase assay in Hepa1-6 cells; type: cell-based, mouse; conditions: Hepa1-6 reporter cells, 10 μM, 24 hours
Method: To get closer to the environment in the liver, a cell stably expressing an expression cassette in which a luciferase gene was ligated to the downstream side of the G0S2 promoter (−2030→+10) was constructed in the Hepa1-6 cell, which is a mouse hepatoma-derived cell. Using this cell, an effect of the candidate compounds on the luciferase activity was evaluated in the same manner as in the primary screening described above.

Bmal1 promoter = Bmal1 promoter luciferase assay in MEF cell line; type: cell-based; conditions: MEF reporter cell line, 10 μM, 24 hours
Method: Therefore, in order to exclude compounds having an effect on clock genes in normal cells, studies were conducted using the MEF cell line stably expressing an expression cassette in which a luciferase gene was ligated to the downstream side of the Bmal1 promoter.

[2] = test system: nuclear receptor RARα mRNA; assay: RARα mRNA expression in Hepa1-6 cells (qRT-PCR); type: cell-based, mouse; conditions: 10 μM, 24 hours
[3] = test system: DEN-induced hepatitis/hepatoma mouse model; assay: DEN-induced hepatitis/hepatoma mouse model: hepatoma/tumor formation in liver after 14 weeks; type: in vivo; conditions: 15 mg/kg in drinking water
Method: Mice of a diethylnitrosamine (DEN)-induced hepatitis/hepatoma mouse model were divided into two groups, one receiving siRNA against G0S2 (G0S2 siRNA-administered group) and the other receiving negative control siRNA (control siRNA-administered group). Administration of siRNA to mice was carried out by tail vein administration of 1.6 nmol/mouse using a nucleic acid transfection reagent (trade name “LipoTrust™ EX Oligo <in vivo>, Hokkaido System Science Co., Ltd.). As the siRNA against G0S2, commercially available siRNA (Life Technologies, Inc., trade name “Stealth siRNA”, catalog number “#1320001”, the base sequence of the antisense strand is set forth in SEQ ID NO: 3) was used. As the control siRNA, a commercially available siRNA (Life Technologies, Inc., the base sequence of the antisense strand is set forth in SEQ ID NO: 4) was used.
Subsequently, mice of the same G0S2 siRNA-administered group and control siRNA-administered group as above were prepared. DEN was added to drinking water at a concentration of 80 mg/L from one day after the administration of siRNA to mice, and mice were sacrificed after 14 weeks of breeding and then subjected to analysis. As a result, the onset of hepatoma was inhibited in mice of the G0S2 siRNA-administered group.
(§1) Diethylnitrosamine (DEN) dissolved in water at a concentration of 80 mg/L as drinking water was administered in drinking water to ICR mice, thereby inducing chronic inflammation and hepatoma in the liver. In addition, a group in which 15 mg/kg of the compound of Example 10 (NS-3-086) was administered in drinking water from immediately after the start of administration of DEN in drinking water was prepared. As a control group, a group given tap water as drinking water was used.
Subsequently, mice of each group were sacrificed 14 weeks after the start of administration of DEN in drinking water, and the liver was excised and analyzed. FIGS. 28A, 28B and 28C are photographs of the liver at 14 weeks after the start of administration of DEN in drinking water.

[4] = test system: alanine aminotransferase (ALT) activity in serum; assay: Serum ALT activity in DEN-induced hepatitis/hepatoma mouse model; type: in vivo; conditions: ICR mice, DEN 80 mg/L, 15 mg/kg in drinking water, 8 weeks and 12 weeks
Method: as §1, with “inflammation” for “inflammation and hepatoma”
Subsequently, 8 weeks and 12 weeks after the start of administration of DEN in drinking water, blood was collected from the tails of mice of each group, and the alanine aminotransferase (ALT) activity in serum was measured using a commercially available kit (“Transaminase CII-Test Wako”, manufactured by Wako Pure Chemical Industries, Ltd.).

Hsd17b4 gene = assay: Hsd17b4 knockdown in Hepa1-6 cells: Hsd17b4 gene expression (real-time PCR); type: cell-based, mouse; conditions: 48 hours after transfection, vs control siRNA
Source text: Hepα1-6 cells, which are mouse hepatoma-derived cells, were divided into two groups, in which one group was transfected with siRNA against Hsd17b4 and the other group was transfected with control siRNA. The base sequence of the sense strand of siRNA against Hsd17b4 is set forth in SEQ ID NO: 7, and the base sequence of the antisense strand thereof is set forth in SEQ ID NO: 8. In addition, commercially available siRNA (Life Technologies, Inc., the base sequence of the antisense strand is set forth in SEQ ID NO: 4) was used as the control siRNA.
Subsequently, each cell was recovered after 48 hours and total RNA was extracted. Subsequently, the expression level of the Hsd17b4 gene was quantified by real-time PCR.

G0S2 promoter = G0S2 promoter luciferase activity in O-4000E cell line, IC50; type: cell-based, mouse; conditions: Mus musculus, 24 h, O-4000E cells, 24 hours after exposure
Method: The present inventors have searched for a G0S2 gene transcription inhibitor. In searching, the present inventors have received a compound library consisting of 9600 compounds (Core library) from the Open Innovation Center for Drug Discovery, The University of Tokyo. For this compound library, primary screening was carried out by evaluating an effect of compounds on a luciferase activity using a 384-well plate. The drug efficacy evaluation was studied three times for each compound (final concentration of 10 μM) using a cell line stably expressing an expression cassette in which a luciferase gene was ligated to the downstream side of the G0S2 promoter (−2030→−1378), and compounds which reduced a luciferase activity to less than ¼ were extracted from all studies. As a result, 175 compounds were hit.
For the evaluation of drug efficacy of Compound Nos. 1 and 2, which are hit compounds, an IC50 was calculated. The O-4000E cell line was seeded, and Compound Nos. 1 and 2 were serially diluted in […] so as to have final concentrations of 0.15625 μM to 10 μM, followed by exposure of the cells to the compounds. The luciferase activity was measured 24 hours after the exposure, and the curve fitting was carried out to calculate an IC50 of the compounds.
Detailed drug efficacy evaluation at low concentrations was carried out for the compound of Example 2 (NS-3-011) whose drug efficacy at a concentration of less than 10 μM was observed based on the studies so far and which is expected to have an effect equal to or more than that of Compound No. 2. First, using O-4000E cells, IC50 of Compound No. 2 and the compound of Example 2 (NS-3-011) on the G0S2 promoter activity was calculated.

[5] = molecular target: T1, Hsd17b4 (Peroxisomal multifunctional enzyme type 2) (Mus musculus, UniProt P51660); assay: Pull-down assay with avidin beads and LC/MS/MS identification of target protein; type: binding; conditions: proteins from mouse hepatocytes, avidin beads
T1 construct: Mouse hepatocytes were homogenized to extract proteins from the cytoplasm and nucleus; endogenous in cells; host or cells: mouse hepatocytes (homogenate, cytoplasmic and nuclear proteins)
T1 sequence (P51660 1-735): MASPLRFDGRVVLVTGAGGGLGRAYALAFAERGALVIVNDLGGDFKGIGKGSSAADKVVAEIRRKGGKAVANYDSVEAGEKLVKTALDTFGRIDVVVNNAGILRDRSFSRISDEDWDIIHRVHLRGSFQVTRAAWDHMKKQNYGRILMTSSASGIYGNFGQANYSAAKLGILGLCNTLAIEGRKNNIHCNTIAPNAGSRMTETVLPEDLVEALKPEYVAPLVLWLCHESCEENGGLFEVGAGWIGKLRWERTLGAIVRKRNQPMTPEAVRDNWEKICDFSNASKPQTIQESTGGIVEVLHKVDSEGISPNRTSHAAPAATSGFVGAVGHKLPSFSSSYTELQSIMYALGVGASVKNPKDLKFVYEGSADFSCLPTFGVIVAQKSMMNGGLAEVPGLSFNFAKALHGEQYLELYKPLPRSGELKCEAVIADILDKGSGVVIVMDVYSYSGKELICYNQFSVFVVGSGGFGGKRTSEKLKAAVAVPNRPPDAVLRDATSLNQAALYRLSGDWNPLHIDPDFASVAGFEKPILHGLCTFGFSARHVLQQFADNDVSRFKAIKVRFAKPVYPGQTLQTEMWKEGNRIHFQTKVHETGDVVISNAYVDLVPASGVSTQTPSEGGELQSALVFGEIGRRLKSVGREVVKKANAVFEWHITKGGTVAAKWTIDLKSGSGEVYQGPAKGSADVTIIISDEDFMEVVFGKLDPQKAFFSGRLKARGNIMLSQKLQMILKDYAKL
Method: (§2) Mouse hepatocytes were homogenized to extract proteins from the cytoplasm and nucleus. […] The chemical formulae of Compounds #142 and #151 are shown in General Formulae (13) and (14), respectively.
Thereafter, a pull-down assay was carried out with avidin-labeled magnetic beads (hereinafter, sometimes referred to as “avidin beads”), and the compounds and proteins bound to the avidin beads were subjected to acrylamide gel electrophoresis. The acrylamide gel after subjecting to electrophoresis was negatively stained, a band of a protein specifically bound to Compound #142 was excised, and the protein was identified by an LC/MS/MS analysis.
FIG. 17 is a photograph showing the results of acrylamide gel electrophoresis.

G0S2 = assay: Inhibition of the expression of G0S2 (stated, test not specified); type: cell-based
Source text: as §2

G0S2 mRNA [6] = assay: G0S2 mRNA expression in Hepa1-6 cells (qRT-PCR); type: cell-based, mouse; conditions: for expression level of G0S2 mRNA: 10 μM, 24 hours; for G0S2 mRNA expression level: 48 hours, vs DMSO
Method: The effect of the compound on the expression level of mRNA of the G0S2 gene was evaluated for the three compounds extracted so far. 24 hours after seeding with Hepa1-6 cells, the cells were exposed to hit compounds at 10 μM and sampling and total RNA extraction were carried out 24 hours later. Subsequently, changes in the expression level of mRNA of the G0S2 gene were measured by a qRT-PCR method.
Hepa1-6 cells were exposed to 10 μM of each of seven derivatives of Compound No. 2 (Examples 2 and 4 to 9) and an effect of the derivative compounds on the expression level of G0S2 mRNA after 24 hours was evaluated.
Therefore, Hepa1-6 cells were exposed to Compound No. 2 and the compound of Example 2 (NS-3-011) in the range of 0.5 to 5 μM and an effect of the compounds on the expression level of endogenous G0S2 mRNA after 48 hours was evaluated.
Subsequently, Hepa1-6 cells were transfected with siRNA against Hsd17b4 or control siRNA in the presence (10 μM) or absence (indicated as “DMSO” in FIG. 22B) of Compound No. 2. Subsequently, each cell was recovered after 48 hours and total RNA was extracted. Subsequently, the expression level of the G0S2 gene was quantified by real-time PCR.

G0S2 mRNA [7] = assay: G0S2 mRNA expression in human HepG2 cells; type: cell-based; conditions: 10 μM, 24 hours
[8] = ICR mice, DEN 80 mg/L, 14 weeks
[9] = liver, 14 weeks after start of DEN in drinking water

O=C(Nc1cccc(S(=O)(=O)c2cccc(NC(=O)C3CC3)c2)c1)C1CC1 [Compound No. 3]
G0S2 promoter (−2030→+10) activity (relative value) [1]: less than ½
Bmal1 promoter activity (Bmal1 promoter): no significant change
expression level of nuclear receptor RARα mRNA [2]: significant decrease

CCCCCCCCCCCCNC(=N)NCc1cc(C(F)(F)F)cc(C(F)(F)F)c1 [Example 10]
hepatic hardening [3, 8]: inhibited
tumor formation in the liver [3, 8]: inhibited
mice (n) with large number of tumors [3, 9]: 0 n
mice (n) with number of tumors 0 [3, 9]: 3 n
mice (n) with number of tumors 1 [3, 9]: 3 n
increase in serum ALT activity by DEN drinking water [4]: inhibited

siRNA against Hsd17b4: siRNA against Hsd17b4, sense strand SEQ ID NO: 7, antisense strand SEQ ID NO: 8 (sense GAGCAUUAGUCAUUGUGAACGACUU; antisense AAGUCGUUCACAAUGACUAAUGCUC; listed as RNA, chemistry not given here)
expression of Hsd17b4 (Hsd17b4 gene): inhibited

CC(=O)Nc1cccc(NC(=O)CSc2nc(=O)n(N3CCN(C)CC3)c3c2CCC3)c1 [Compound No. 1]
G0S2 promoter (−2030→+10) activity (relative value) [1]: less than ½
Bmal1 promoter activity (Bmal1 promoter): no significant change
expression level of nuclear receptor RARα mRNA [2]: no change
IC50 (G0S2 promoter): 5 µM

CCCCCCCCCCCCNC(=N)NCc1ccc(OCc2cn(CCOCCOCCOCCNC(=O)CCCC[C@@H]3SC[C@@H]4NC(=O)N[C@@H]43)nn2)cc1 [#142]
protein specifically bound in pull-down assay (band of about 75 kDa) [5]: Hsd17b4

N=C(NCCCCCO)NCc1ccccc1 [Comparative Example 1]
inhibition of the expression of G0S2 (G0S2): not inhibiting the expression of G0S2

CCCCCCN/C(=N\C(=O)OC(C)(C)C)NCc1ccccc1 [Example 4]
expression level of G0S2 mRNA (G0S2 mRNA [6]): up to the same extent as that of Compound 2

CCCCCCNC(=N)NCCc1ccccc1 [Example 6]
G0S2 mRNA expression level (G0S2 mRNA [6]; 2.5 μM): significant decrease
G0S2 mRNA expression level (G0S2 mRNA [6]; 5 μM): significant decrease
expression level of G0S2 mRNA (G0S2 mRNA [6]): up to the same extent as that of Compound 2
expression level of G0S2 mRNA (G0S2 mRNA [7]): significant decrease
